# Reference: US20230292747A1, “Composition for use in agriculture” (Bayer Aktiengesellschaft, priority 2020, published 2023)
# Like-named read-outs stand apart in the source and are kept apart here.
# How the values were obtained:
# [1] = Measurement of water hardness before and after adding softeners (AQUADUR test strips); format: physicochemical
# Experimental: (§1) • Soft water (Milli-Q water), self made hard water and very hard water collected from the field (sample A) were used in the assays. Self made hard water was prepared by adding magnesium sulfate to the tap water (440 mg MgSO4/1 L tap water) to achieve 25° d (˜445 ppm). […] The water softeners were used in concentrations described in Table 2. First, the softeners were added to Sample A, self made hard and soft water samples and the water hardness was determined with test strips (see Table 3). Next, Flipper (0,5%, corresponding to a fatty acid derivative content of 2.4 g/l) was mixed to the different water plus softener solutions and subsequently the samples were sprayed on plants infected with aphids. Additionally, another biological product based on fatty acid derivatives (product Neudosan® Neu available from Certis Europe B.V.) was tested in combination with the softener Slox and a softener based on TSCA(in the following named “Coded” (for concentrations see Table 2) in hard vs soft water against aphids as described above. The efficacy of Neudosan (0,5% and 1% corresponding to a fatty acid derivative content of 2.575 g/l and 5,15 g/1) was compared to the efficacy of Flipper (0,5% and 1% corresponding to a fatty acid derivative content of 2.4 g/l and 4,8 g/1) with and without softeners (see Table 5). • Four single-leaf pepper or cotton plants infected with mixed population of Myzus persicae or Aphis gossypii were used in the bioassays. The infected plants were sprayed with the prepared solutions by using an automatic spraying system machine with integrated residue drying and afterwards incubated in a greenhouse chamber under controlled conditions (25±1° C. and 55±5% RH).
# [2] = system: Myzus persicae; assay: Aphid spray bioassay on infected pepper plants, insect mortality on day seven post treatment; format: in vivo; settings: day 7
# Experimental: (§2) • The laboratory colonies of Myzus persicae and Aphis gossypii were reared on pea and cotton plants under controlled conditions 25±1° C. and a 55±5% relative humidity. • Experiments were conducted at RT using pepper (Capsicum annuum) for Myzus persicae and cotton (Gossypium herbaceum) for Aphis gossypii.
# as §1
# (§3) The tests were conducted according to the protocol described in Example 1.
# [3] = system: Aphis gossypii; assay: Aphid spray bioassay on infected cotton plants, insect mortality on day seven post treatment; format: in vivo
# Experimental: as §2, §1, §3
# [4] = system: pepper (Capsicum annuum); format: in vivo; settings: pepper plants
# [5] = system: cotton (Gossypium herbaceum); settings: cotton plants
# Experimental: as §2
# • Soft water (Milli-Q water), self made hard water and very hard water collected from the field (sample A) were used in the assays. Self made hard water was prepared by adding magnesium sulfate to the tap water (440 mg MgSO4/1 L tap water) to achieve 25° d (˜445 ppm). […] The water softeners were used in concentrations described in Table 2. First, the softeners were added to Sample A, self made hard and soft water samples and the water hardness was determined with test strips (see Table 3). Next, Flipper (0,5%, corresponding to a fatty acid derivative content of 2.4 g/l) was mixed to the different water plus softener solutions and subsequently the samples were sprayed on plants infected with aphids. […]
# [6] = field collected water Sample A (>25 °D before), softener at % printed in row
# [7] = field collected water Sample A (>445 ppm before), converted 1 °D = 17.8 ppm
# [8] = self made hard water (25 °D before), softener at % printed in row
# [9] = self made hard water (445 ppm before), converted 1 °D = 17.8 ppm
# [10] = soft water (0 ppm before), converted 1 °D = 17.8 ppm
# [11] = soft water (Milli-Q, 0 °D before), softener at % printed in row
# [12] = 0.5% Flipper + named softener (% printed in row) in self made hard water
# [13] = 0.5% Flipper + named softener (% printed in row) in soft water
# [14] = 0.5% Flipper + named softener (% printed in row) in self made hard water, cotton, day 7
# [15] = 0.5% Flipper + named softener in self made hard water
# [16] = 0.5% Flipper + named softener in soft water
Structure (SMILES),"Water hardness after adding softener [1, 6] [°D]","Water hardness after adding softener [1, 7] [ppm]","Water hardness after adding softener [1, 8] [°D]","Water hardness after adding softener [1, 9] [ppm]","Water hardness after adding softener [1, 10] [ppm]","Water hardness after adding softener [1, 11] [°D]","Efficacy of 0.5% Flipper against Myzus persicae, after adding softeners [2, 12] [%]","Efficacy of 0.5% Flipper against Myzus persicae, after adding softeners [2, 13] [%]","Efficacy of 0.5% Flipper against Aphis gossypii, after adding softeners [3, 14] [%]","Efficacy of 0.5% Flipper against Aphis gossypii, after adding softeners ([3]; in vivo)","PTX [4, 15]","PTX [4, 16]","PTX [5, 15]","PTX [5, 16]","Efficacy of 0.5% Flipper against Aphis gossypii, after adding softeners ([3]; 0.5% Flipper + named softener (% printed in row) in soft water, cotton, day 7) [%]"
"O=C(O)CN(CCN(CC(=O)O)CC(=O)O)CC(=O)O [EDTA, Ethylene diamine tetraacetate]",0,0,0,0,0,0,81.25,97,65,72.5 (slight %,strong,Strong,slight,72.5 (slight,
"O=C([O-])CC(O)(CC(=O)[O-])C(=O)[O-].[Na+].[Na+].[Na+] [TSCA, Trisodium citric acid]",20,356,20,356,0,0,55,67.5,55,,,,,,70
